Results published in US20230089867A1, “CYCLIC PENTAMER COMPOUNDS AS PROPROTEIN CONVERTASE SUBTILISIN/KEXIN TYPE 9 (PCSK9) INHIBITORS FOR THE TREATMENT OF METABOLIC DISORDER” (Novartis AG, priority 2018, published 2023).

Target: human PCSK9 (Homo sapiens, UniProt Q8NBP7)
Test: PCSK9 ligand binding TR-FRET assay (interference with binding of human PCSK9 to human LDLR)
Details: for Max % inhibition: PCSK9 FRET assay, efficacy (Amax), 100% = 1 uM unlabeled human PCSK9, 0% = DMSO; for IC50: TR-FRET, human PCSK9 Alexa Fluor 647 / human LDLR extracellular domain-Europium Kryptate, read-out: PCSK9 FRET Assay IC50
Experimental: The PCSK9 binding of the compounds of the disclosure were measured using a time resolved fluorescence resonance energy transfer (TR-FRET) assay. This time resolved fluorescence resonance energy transfer (TR-FRET) assay measures the ability of a compound of the present disclosure to interfere with the binding of human PCSK9 to human LDLR, providing measures of both potency (IC50) and efficacy (Amax).
These solutions were pipetted into columns 1 and 11 of the compound plate. Threefold serial dilutions were generated in columns 2-10 and 12-20 of the compound plate by transferring 10 uL into 20 uL of DMSO. Columns 21 and 22 of the compound plate were negative controls containing DMSO alone.
An intermediate plate was generated in a Greiner V bottom plate by transferring 8 uL from each well of the master plate into a corresponding well containing 92 uL of assay buffer and mixing thoroughly.
A Proxi plate-low volume assay plate was used for the assay. […] For the positive control wells in columns 23 and 24 of the plate, 5 uL of unlabeled human PCSK9 was added at 4 uM in assay buffer containing 8% DMSO. Following a 30 minute incubation, 5 uL of 4 nM Human LDLR extracellular domain-Europium Kryptate was added and the mixture was incubated for an additional 2 hours.
The FRET ratio (FRET/Europium) was used for calculations.
Data is expressed as percent inhibition: (value−0%)/(100%−0%).

human PCSK9, sequence (Q8NBP7 153-692): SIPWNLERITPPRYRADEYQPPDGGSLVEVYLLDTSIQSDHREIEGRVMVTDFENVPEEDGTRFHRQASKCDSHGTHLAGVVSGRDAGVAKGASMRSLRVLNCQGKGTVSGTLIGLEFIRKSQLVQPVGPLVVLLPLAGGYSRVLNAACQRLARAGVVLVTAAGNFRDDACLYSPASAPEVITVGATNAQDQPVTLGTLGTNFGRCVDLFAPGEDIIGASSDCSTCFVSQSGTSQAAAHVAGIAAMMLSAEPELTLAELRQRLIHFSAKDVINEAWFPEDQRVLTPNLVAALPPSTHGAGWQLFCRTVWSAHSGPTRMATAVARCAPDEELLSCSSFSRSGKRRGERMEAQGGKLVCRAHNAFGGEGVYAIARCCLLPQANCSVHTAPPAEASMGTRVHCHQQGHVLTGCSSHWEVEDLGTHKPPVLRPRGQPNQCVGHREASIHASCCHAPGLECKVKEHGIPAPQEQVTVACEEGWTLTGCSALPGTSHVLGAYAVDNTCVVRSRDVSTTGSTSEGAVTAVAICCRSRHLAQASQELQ
human PCSK9, sequence (Q8NBP7 31-152 partner limits assumed): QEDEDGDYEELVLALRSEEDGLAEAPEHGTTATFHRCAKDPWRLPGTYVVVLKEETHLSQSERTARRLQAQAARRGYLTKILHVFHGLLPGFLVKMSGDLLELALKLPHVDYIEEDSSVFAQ

Row | SMILES | Max % inhibition | IC50
1 | CCc1ccc(CN2C(=O)C[C@@H](Cc3ccccc3)C(=O)N(C)[C@H]3CCCC[C@@H]3NC(=O)C[C@H](Cc3ccc(Cl)cc3)N(C)C(=O)[C@H](COC)NC(=O)[C@@H]2C)c(Oc2ccc(-c3cnc(CN4CC5(COC5)C4)n3C)cc2)c1 [Compound 23, (4S,7S,10S,14R,16aS,20aS)-11-(2-(4-(2-(2-oxa-6-azaspiro[3.3]heptan-6-ylmethyl)-1-methyl-1H-imidazol-5-yl)phenoxy)-4-ethylbenzyl)-14-benzyl-4-(4-chlorobenzyl)-7-(methoxymethyl)-5,10,16-trimethylhexadecahydrobenzo[l][1,4,7,11,14]pentaazacyclooctadecine-2,6,9,12,15(3H)-pentaone] | 96.76% | 2.2 nM
2 | C[C@H]1CNC(=O)C[C@H](Cc2ccc(Cl)cc2)NC(=O)[C@H](CF)NC(=O)[C@H](C)N(Cc2ccc(Cl)cc2Oc2ccc(-c3cnc(CN4CCCC4)n3C)cc2)C(=O)C[C@@H](Cc2ccccc2)C(=O)N1C [Compound 25, (2S,5R,8S,13S,16R)-16-benzyl-1-(4-chloro-2-(4-(1-methyl-2-(pyrrolidin-1-ylmethyl)-1H-imidazol-5-yl)phenoxy)benzyl)-8-(4-chlorobenzyl)-5-(fluoromethyl)-2,13,14-trimethyl-1,4,7,11,14-pentaazacyclooctadecane-3,6,10,15,18-pentaone] | 52.86% | 113 nM
3 | COC[C@@H]1NC(=O)[C@H](C)N(Cc2ccc(Cl)cc2Oc2ccc(-c3cnc(C4CCCN4C)n3C)cc2)C(=O)C[C@@H](Cc2ccccc2)C(=O)N(C)[C@@H](C)CNC(=O)C[C@H](Cc2ccc(Cl)cc2)N(C)C1=O (stereo partly drawn) [Compound 28, (2S,5S,8S,13S,16R)-16-benzyl-1-(4-chloro-2-(4-(1-methyl-2-(1-methylpyrrolidin-2-yl)-1H-imidazol-5-yl)phenoxy)benzyl)-8-(4-chlorobenzyl)-5-(methoxymethyl)-2,7,13,14-tetramethyl-1,4,7,11,14-pentaazacyclooctadecane-3,6,10,15,18-pentaone] | 102.04% | 3.6 nM
4 | CCCC#Cc1ncc(-c2ccc(Oc3cc(Cl)ccc3CN3C(=O)C[C@@H](Cc4ccccc4)C(=O)N(C)[C@@H](C)CNC(=O)C[C@H](Cc4ccc(Cl)cc4)N(C)C(=O)[C@H](COC)NC(=O)[C@@H]3C)cc2)n1C [Compound 30, (2S,5S,8S,13S,16R)-16-benzyl-1-(4-chloro-2-(4-(1-methyl-2-(pent-1-yn-1-yl)-1H-imidazol-5-yl)phenoxy)benzyl)-8-(4-chlorobenzyl)-5-(methoxymethyl)-2,7,13,14-tetramethyl-1,4,7,11,14-pentaazacyclooctadecane-3,6,10,15,18-pentaone] | 85.21% | 59.8 nM
5 | C[C@H]1CNC(=O)C[C@H](Cc2ccc(Cl)cc2)N(C)C(=O)[C@H](C2COC2)NC(=O)[C@H](C)N(Cc2ccc(Cl)cc2Oc2ccc(-c3cnc(CN(C)C)n3C)cc2)C(=O)C[C@@H](Cc2ccccc2)C(=O)N1C [Compound 31, (2S,5S,8S,13S,16R)-16-benzyl-1-(4-chloro-2-(4-(2-((dimethylamino)methyl)-1-methyl-1H-imidazol-5-yl)phenoxy)benzyl)-8-(4-chlorobenzyl)-2,7,13,14-tetramethyl-5-(oxetan-3-yl)-1,4,7,11,14-pentaazacyclooctadecane-3,6,10,15,18-pentaone] | 60.09% | 787 nM
6 | COC[C@@H]1NC(=O)[C@H](C)N(Cc2ccc(Cl)cc2Oc2ccc(-c3cnc(CN(C)C)n3C)cc2)C(=O)C[C@@H](Cc2ccccc2)C(=O)N(C)C[C@H](C)NC(=O)C[C@H](Cc2ccc(Cl)cc2)N(C)C1=O [Compound 32, (2S,5S,8S,12S,16R)-16-benzyl-1-(4-chloro-2-(4-(2-((dimethylamino)methyl)-1-methyl-1H-imidazol-5-yl)phenoxy)benzyl)-8-(4-chlorobenzyl)-5-(methoxymethyl)-2,7,12,14-tetramethyl-1,4,7,11,14-pentaazacyclooctadecane-3,6,10,15,18-pentaone] | 103.15% | 1.8 nM
7 | COC[C@@H]1NC(=O)[C@H](C)N(Cc2ccc(OC(F)(F)F)cc2Oc2ccc(-c3cnc(CN(C)C)n3C)cc2)C(=O)C[C@@H](Cc2ccccc2)C(=O)N(C)[C@@H](C)CNC(=O)C[C@H](Cc2ccc(Cl)cc2)N(C)C1=O [Compound 35, (2S,5S,8S,13S,16R)-16-benzyl-8-(4-chlorobenzyl)-1-(2-(4-(2-((dimethylamino)methyl)-1-methyl-1H-imidazol-5-yl)phenoxy)-4-(trifluoromethoxy)benzyl)-5-(methoxymethyl)-2,7,13,14-tetramethyl-1,4,7,11,14-pentaazacyclooctadecane-3,6,10,15,18-pentaone] | 104.05% | 4.2 nM
8 | COC[C@@H]1NC(=O)[C@H](CC(F)(F)F)N(Cc2ccc(Cl)cc2Oc2ccc(-c3cnc(CN(C)C)n3C)cc2)C(=O)C[C@@H](Cc2ccccc2)C(=O)N(C)[C@@H](C)CNC(=O)C[C@H](Cc2ccc(Cl)cc2)N(C)C1=O [Compound 37, (2S,5S,8S,13S,16R)-16-benzyl-1-(4-chloro-2-(4-(2-((dimethylamino)methyl)-1-methyl-1H-imidazol-5-yl)phenoxy)benzyl)-8-(4-chlorobenzyl)-5-(methoxymethyl)-7,13,14-trimethyl-2-(2,2,2-trifluoroethyl)-1,4,7,11,14-pentaazacyclooctadecane-3,6,10,15,18-pentaone] | 100.65% | 2.3 nM

Compounds with a lower IC50, results first:

Row | Max % inhibition | IC50 | SMILES
9 | 98.82% | 1.1 nM | COC[C@@H]1NC(=O)[C@H](C)N(Cc2ccc(Cl)cc2Oc2ccc(-c3cnc(CN4CCCC4)n3C)cc2)C(=O)C[C@@H](Cc2ccc(F)cc2F)C(=O)N(C)[C@@H](C)CNC(=O)C[C@H](Cc2ccc(Cl)cc2)N(C)C1=O [Compound 22, (2S,5S,8S,13S,16R)-1-(4-chloro-2-(4-(1-methyl-2-(pyrrolidin-1-ylmethyl)-1H-imidazol-5-yl)phenoxy)benzyl)-8-(4-chlorobenzyl)-16-(2,4-difluorobenzyl)-5-(methoxymethyl)-2,7,13,14-tetramethyl-1,4,7,11,14-pentaazacyclooctadecane-3,6,10,15,18-pentaone]
10 | 101.53% | 1.1 nM | COC[C@H]1CNC(=O)C[C@H](Cc2ccc(Cl)cc2)N(C)C(=O)[C@H](COC)NC(=O)[C@H](C)N(Cc2ccc(Cl)cc2Oc2ccc(-c3cnc(CN(C)C)n3C)cc2)C(=O)C[C@@H](Cc2ccccc2)C(=O)N1C [Compound 27, (2S,5S,8S,13R,16R)-16-benzyl-1-(4-chloro-2-(4-(2-((dimethylamino)methyl)-1-methyl-1H-imidazol-5-yl)phenoxy)benzyl)-8-(4-chlorobenzyl)-5,13-bis(methoxymethyl)-2,7,14-trimethyl-1,4,7,11,14-pentaazacyclooctadecane-3,6,10,15,18-pentaone]
11 | 94.90% | 0.6 nM | COC[C@@H]1NC(=O)[C@H](CCN(C)C)N(Cc2ccc(Cl)cc2Oc2ccc(-c3cnc(CN(C)C)n3C)cc2)C(=O)C[C@@H](Cc2ccccc2)C(=O)N(C)[C@H]2CCCC[C@@H]2NC(=O)C[C@H](Cc2ccc(Cl)cc2)N(C)C1=O [Compound 29, (4S,7S,10S,14R,16aS,20aS)-14-benzyl-11-(4-chloro-2-(4-(2-((dimethylamino)methyl)-1-methyl-1H-imidazol-5-yl)phenoxy)benzyl)-4-(4-chlorobenzyl)-10-(2-(dimethylamino)ethyl)-7-(methoxymethyl)-5,16-dimethylhexadecahydrobenzo[l][1,4,7,11,14]pentaazacyclooctadecine-2,6,9,12,15(3H)-pentaone]
12 | 95.65% | 1.3 nM | COC[C@@H]1NC(=O)[C@H](C)N(Cc2ccc(Cl)cc2Oc2ccc(-c3cnc(CN(C)C)n3C)cc2)C(=O)C[C@@H](Cc2ccc(F)c(F)c2F)C(=O)N(C)[C@@H](C)CNC(=O)C[C@H](Cc2ccc(Cl)cc2)N(C)C1=O [Compound 33, (2S,5S,8S,13S,16R)-1-(4-chloro-2-(4-(2-((dimethylamino)methyl)-1-methyl-1H-imidazol-5-yl)phenoxy)benzyl)-8-(4-chlorobenzyl)-5-(methoxymethyl)-2,7,13,14-tetramethyl-16-(2,3,4-trifluorobenzyl)-1,4,7,11,14-pentaazacyclooctadecane-3,6,10,15,18-pentaone]
13 | 95.86% | 1 nM | COC[C@@H]1NC(=O)[C@H](C)N(Cc2c(F)cc(Cl)cc2Oc2ccc(-c3cnc(CN4CCCC4)n3C)cc2)C(=O)C[C@@H](Cc2ccccc2)C(=O)N(C)[C@@H](C)CNC(=O)C[C@H](Cc2ccc(Cl)cc2)N(C)C1=O [Compound 34, (2S,5S,8S,13S,16R)-16-benzyl-1-(4-chloro-2-fluoro-6-(4-(1-methyl-2-(pyrrolidin-1-ylmethyl)-1H-imidazol-5-yl)phenoxy)benzyl)-8-(4-chlorobenzyl)-5-(methoxymethyl)-2,7,13,14-tetramethyl-1,4,7,11,14-pentaazacyclooctadecane-3,6,10,15,18-pentaone]
